PubChem BioAssay (NCI)
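Dose response: 5 concentrations. Exposure: 48 h. Format: 96-well plates. Endpoint: linear interpolation; highest concentration if not reached. GI50 marks 50% less growth. TGI marks complete inhibition of growth.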

Assays:
Assay in all cases: NCI anticancer screen, dose series, 48 h
COLO 205 colon = system: COLO 205 colon
OVCAR-3 ovarian = system: OVCAR-3 ovarian
SF-539 CNS = system: SF-539 CNS
PC-3 prostate = system: PC-3 prostate
CCRF-CEM leukemia = system: CCRF-CEM leukemia
OVCAR-8 ovarian = system: OVCAR-8 ovarian
DU-145 prostate = system: DU-145 prostate
IGROV1 ovarian = system: IGROV1 ovarian

Row | Structure (SMILES) | GI50 (COLO 205 colon) | TGI (COLO 205 colon) | GI50 (OVCAR-3 ovarian) | TGI (OVCAR-3 ovarian) | GI50 (SF-539 CNS) | TGI (SF-539 CNS) | GI50 (PC-3 prostate) | TGI (PC-3 prostate) | GI50 (CCRF-CEM leukemia) [µM] | TGI (CCRF-CEM leukemia) [µM] | GI50 (OVCAR-8 ovarian) | TGI (OVCAR-8 ovarian) | GI50 (DU-145 prostate) [µM] | TGI (DU-145 prostate) [µM] | GI50 (IGROV1 ovarian) | TGI (IGROV1 ovarian)
1 | CC[CH2][Sn]([Cl])([Cl])[CH2]CC | 8.53 µM | 22.5 µM | 12.9 µM | 26.1 µM | 11.1 µM | 25 µM | 16.2 µM | 35.9 µM | 1.24 | > 100 | 14.7 µM | 30.1 µM | 14.5 | 28.6 | – | –
2 | CC1=C([Se]CC(OC(=O)[C@@H](CO)NC(=O)OC(C)(C)C)C(=O)NC(C)(C)C)C(=O)c2ccccc2C1=O (some centres undefined) | 1.83 µM | 3.3 µM | 1.8 µM | 3.19 µM | 1.57 µM | 3.05 µM | 1.35 µM | 2.85 µM | 0.525 | > 100 | – | – | 1.9 | 3.37 | 1.66 µM | 3.27 µM
3 | CC(=O)OC[C@]12CC[C@@H]([C@@H](C)C(N)=O)[C@@H]1[C@H]1CC[C@@H]3[C@@]4(C)CC[C@H](OC(C)=O)C(C)(C)[C@@H]4CC[C@@]3(C)[C@]1(C)CC2 | 4.31 µM | 25 µM | 3.95 µM | 13.3 µM | 5.52 µM | 17.7 µM | 2.67 µM | 11.6 µM | 5.19 | 30 | 5.44 µM | 25.2 µM | 9.94 | 23.3 | 13.2 µM | 30 µM
4 | COc1ccc(/C=C/c2cc(N3CCOCC3)c3cc(F)c(F)cc3n2)cc1OC | 0.558 µM | 3.81 µM | 0.351 µM | 2.26 µM | 0.913 µM | 4.29 µM | 0.846 µM | 14.4 µM | 0.31 | 10.2 | 0.55 µM | 3.23 µM | 1.58 | 11.8 | 0.968 µM | 9.67 µM
5 | C#COc1cccc(Nc2ncnc3ncc(NC(=O)CCl)cc23)c1 | > 26.8 µM | > 62.5 µM | > 25 µM | > 62.5 µM | > 21.8 µM | > 53.2 µM | > 36.7 µM | > 62.5 µM | – | > 62.5 | > 14.5 µM | > 62.5 µM | > 26.4 | > 62.5 | – | > 26.1 µM
6 | Clc1ccc(-c2nn3ncccc3c2-c2ccnc(Nc3ccccc3)n2)cc1 | > 18.7 µM | > 25 µM | 5.92 µM | > 25 µM | > 14.2 µM | > 25 µM | 7.3 µM | > 25 µM | 10.6 | > 25 | 11.8 µM | > 25 µM | 11 | > 25 | 2.29 µM | > 22 µM
7 | CCCN(CCC)CCCNC(=O)c1cc2c(-c3ccc(OC)c(OC)c3)nn(C)c2s1 | 13.6 µM | 30.3 µM | 21.5 µM | > 100 µM | 16 µM | 31.1 µM | 33.8 µM | > 100 µM | 20.3 | 65.6 | 36.9 µM | > 100 µM | 39.1 | > 100 | 43.3 µM | > 100 µM
8 | O=C(CCCc1ccccn1)c1ccccc1 | – | > 100 µM | – | > 100 µM | – | > 100 µM | – | > 100 µM | – | > 100 | – | > 100 µM | – | > 100 | – | > 100 µM
9 | N#Cc1cccc(NC(=O)c2oc3ccccc3c2-c2cnn(-c3ccccc3)c2)c1 | > 500 µM | > 500 µM | > 500 µM | > 500 µM | 137 µM | > 500 µM | > 500 µM | > 500 µM | > 500 | > 500 | > 500 µM | > 500 µM | > 500 | > 500 | 120 µM | > 500 µM
10 | COC(=O)[C@@]1(C)CC[C@]2(C)CC[C@]3(C)C4=CC=C5C(=CC(=O)C(O)=C5C)[C@]4(C)CC[C@@]3(C)[C@@H]2C1 | 0.182 µM | 0.437 µM | 0.169 µM | 0.325 µM | 0.26 µM | 0.554 µM | 0.24 µM | 0.573 µM | 0.21 | 0.745 | – | – | 0.182 | 0.382 | 0.198 µM | 0.46 µM
11 | COC(=O)[C@H](CC(C)C)NC(=O)NC(=O)NC(=O)CI | 1.79 µM | 3.47 µM | 1.99 µM | 3.51 µM | 3.16 µM | 12.2 µM | 11.8 µM | 25.7 µM | – | – | 5.69 µM | 18.4 µM | 14 | 27 | 2.06 µM | 4.64 µM
12 | O=C(NNC(=O)c1ccncc1)c1ccncc1 | – | > 100 µM | – | > 100 µM | – | – | – | > 100 µM | – | > 100 | – | > 100 µM | – | > 100 | – | > 100 µM
13 | Cc1ccccc1N=Nc1c(O)[nH]c2ccccc12 | – | > 100 µM | – | > 100 µM | – | – | – | > 100 µM | – | > 100 | – | > 100 µM | – | > 100 | – | > 100 µM
14 | NCC1OC(OC2C(CO)OC(OC3C(O)C(N)CC(N)C3OC3OC(CO)C(O)C(O)C3N)C2O)C(N)C(O)C1O (centres undefined) | > 50 µg/mL | > 50 µg/mL | > 50 µg/mL | > 50 µg/mL | > 50 µg/mL | > 50 µg/mL | > 50 µg/mL | > 50 µg/mL | – | – | > 50 µg/mL | > 50 µg/mL | – | – | > 50 µg/mL | > 50 µg/mL
15 | O=C1C(Cl)=C(Nc2cccc(O)c2)C(=O)N1c1ccc(Cl)c(Cl)c1 | 32 µM | 89.9 µM | 17.9 µM | 36.4 µM | – | – | 19 µM | 49.6 µM | 25.2 | 74.6 | 23.6 µM | 52.2 µM | 19.3 | 42.1 | 28.4 µM | > 100 µM
16 | COc1ccc(Cc2cnc(NC(=O)c3sc4ccccc4c3Cl)s2)cc1 | 0.39 µM | 13.3 µM | – | – | 0.236 µM | 0.674 µM | 0.405 µM | > 100 µM | 0.402 | > 100 | 0.508 µM | > 100 µM | 0.37 | > 100 | 0.608 µM | > 100 µM
17 | C[C@H]1CC[C@@H]2[C@@H](C)[C@H]3[C@H](C[C@H]4[C@@H]5CC=C6C[C@@H](O)CC[C@]6(C)[C@H]5C[C@H](O)[C@]34C)N2C1 | – | > 100 µM | – | > 100 µM | – | > 100 µM | – | > 100 µM | – | – | – | > 100 µM | – | > 100 | – | > 100 µM
